Test results from patent US7968526B2, “Antisense oligonucleotides directed to ribonucleotide reductase R2 and uses thereof in the treatment of cancer” (Lorus Therapeutics Inc., priority 2003, dated 2011).
Entries after “also recorded” stand apart in the source; their conditions may differ.

Columns and labels:
[1] = test system: A2058 human melanoma cells; experiment: A2058 melanoma xenograft in CD-1 nude mice, combination with DTIC (1.6); format: in vivo, human cells in mice; conditions: A2058 (melanoma), CD-1; SEQ ID NO:1 10 mg/kg i.v. every other day; DTIC 80 mg/kg i.v. days 6-10
Protocol: (§1) After 52 days the mice were sacrificed and the tumours weighed. […] Mitoxantrone was administered intravenously once at the beginning of the treatments at a dose of 2 mg/kg (FIG. 4A) or once a week for four weeks at a reduced dose of 0.8 mg/kg (FIG. 4B). All treatments were stopped at day 50 (FIG. 4A) or 48 (FIG. 4B), respectively. […] Mitoxantrone was administered intravenously once at the beginning of the treatments at a dose of 2 mg/kg (FIG. 5A) or once a week for four weeks at a reduced dose of 0.8 mg/kg (FIG. 5B). All treatments were stopped at day 42 (FIG. 5A) or 38 (FIG. 5B), respectively. […] A2058 is a metastatic melanoma cell line. […] All treatments were stopped at day 24. […] Taxol was administered intravenously once a week at a dose of 10 mg/kg for three (FIG. 7A) or four weeks (FIG. 7C). Doxorubicin was administered intravenously once a week at a dose of 5 mg/kg for first three weeks (FIG. 7A) or for two weeks (FIG. 7C). All treatments were stopped at day 33 (FIG. 7A) or at day 26 (FIG. 7C), respectively. […] In FIG. 7C, antitumour activities were estimated by the inhibition of tumour volume, which was measured with calipers. Each point represents mean tumour volume calculated from 10 animals per experimental group. […] Taxol was administered intravenously once a week for first three weeks and intraperitoneally once a week for next two weeks at a dose of 10 mg/kg. Cisplatin was administered intravenously once a week for first three weeks and intraperitoneally once a week for next two weeks at a dose of 4 mg/kg. All treatments were stopped at day 40. Antitumour activities were estimated by the inhibition of tumour volume, which was measured with caliper. Each point represents mean tumour volume calculated from 9 animals per experimental group.

[2] = test system: MDA-MB435-To.1 human Taxol-resistant breast adenocarcinoma cells; experiment: MDA-MB435-To.1 Taxol-resistant breast adenocarcinoma, fat pad, CB-17 SCID mice, combination with Cisplatin (2.6); format: in vivo, human cells in mice; conditions: MDA-MB435-To.1 (breast), Taxol resistant, CB-17/SCID; SEQ ID NO:1 10 mg/kg i.v. every other day; Cisplatin 4 mg/kg i.v. weekly x4
Protocol: BxPC-3 is a gemcitabine resistant call line. […] Gemcitabine was administered intravenously every three days at a dose of 100 mg/kg. Antitumour activities were estimated by the inhibition of tumour volume, which was measured with caliper. Each point represents mean tumour volume calculated from 10 animals per experimental group. […] Hela S3 is a hydroxyurea resistant cell line. […] Hydroxyurea was administered intraperitoneally every day at a dose of 250 mg/kg for 10 days. Cisplatin was administered intravenously once a week for three weeks at a dose of 4 mg/kg. Antitumour activities were estimated by the inhibition of tumour volume, which was measured with caliper. Each point represents mean tumour volume calculated from 10 animals per experimental group. […] Cisplatin was administered intravenously once a week for three weeks at a dose of 4 mg/kg. Taxol was administered intravenously once a week for three weeks at a dose of 10 mg/kg. Antitumour activities were estimated by the inhibition of tumour volume, which was measured with caliper. Each point represents mean tumour volume calculated from 10 animals per experimental group. […] Taxol was administered i.p. once a week at a dose of 10 mg/kg. Antitumour activities were estimated by the inhibition of tumour volume (FIG. 12A), which was measured with calipers. Each point represents mean tumour volume calculated from 10 animals per experimental group. […] Antitumour activities were estimated by the inhibition of tumour volume, which was measured with caliper. Each point represents mean tumour volume calculated from 9-10 animals per experimental group. […] Antitumour activities were estimated by the inhibition of tumour volume, which was measured with caliper. Each point represents mean tumour volume calculated from 10 animals per experimental group. […] Anti-tumour activity was estimated by the inhibition of tumour volume, which was measured with caliper. Each point represents mean tumour volume calculated from 10 animals per experimental group. […] Antitumour activities were estimated by the inhibition of tumour volume, which was measured with caliper. […]

[3] = test system: MDA-MB435-To.1 human Taxol-resistant breast adenocarcinoma cells; experiment: MDA-MB435-To.1 Taxol-resistant breast adenocarcinoma, fat pad, SCID mice (2.5); format: in vivo, human cells in mice; conditions: MDA-MB435-To.1 (breast), Taxol resistant, SCID; SEQ ID NO:1 10 mg/kg i.v. every other day 15 times; Taxol 20 mg/kg, Cisplatin 4 mg/kg i.v. weekly x4
Protocol: (§2) BxPC-3 is a gemcitabine resistant call line. […] Gemcitabine was administered intravenously every three days at a dose of 100 mg/kg. Antitumour activities were estimated by the inhibition of tumour volume, which was measured with caliper. Each point represents mean tumour volume calculated from 10 animals per experimental group. […] Hela S3 is a hydroxyurea resistant cell line. […] Hydroxyurea was administered intraperitoneally every day at a dose of 250 mg/kg for 10 days. Cisplatin was administered intravenously once a week for three weeks at a dose of 4 mg/kg. Antitumour activities were estimated by the inhibition of tumour volume, which was measured with caliper. Each point represents mean tumour volume calculated from 10 animals per experimental group. […] Cisplatin was administered intravenously once a week for three weeks at a dose of 4 mg/kg. Taxol was administered intravenously once a week for three weeks at a dose of 10 mg/kg. Antitumour activities were estimated by the inhibition of tumour volume, which was measured with caliper. Each point represents mean tumour volume calculated from 10 animals per experimental group. […] Taxol was administered i.p. once a week at a dose of 10 mg/kg. Antitumour activities were estimated by the inhibition of tumour volume (FIG. 12A), which was measured with calipers. Each point represents mean tumour volume calculated from 10 animals per experimental group. Animals were sacrificed and tumour weights taken at the end of the study (FIG. 12C). […] Cisplatin was administered intravenously once a week for four weeks at a dose of 4 mg/kg. Taxol was administered intravenously once a week for four weeks at a dose of 20 mg/kg. Antitumour activities were estimated by the inhibition of tumour volume, which was measured with caliper. Each point represents mean tumour volume calculated from 9-10 animals per experimental group. […] Cisplatin was administered intravenously once a week for four weeks at a dose of 4 mg/kg. Antitumour activities were estimated by the inhibition of tumour volume, which was measured with caliper. Each point represents mean tumour volume calculated from 10 animals per experimental group. At the end of the study the animals were sacrificed and tumours weighed. […] Taxol was administered i.p. once a week at a dose of 10 mg/kg. Anti-tumour activity was estimated by the inhibition of tumour volume, which was measured with caliper. Each point represents mean tumour volume calculated from 10 animals per experimental group. In addition animals were sacrificed and tumour weights taken at the end of the study. […] CPT-11 was administered i.p. for 5 days at a dose of 20 mg/kg/day. Antitumour activities were estimated by the inhibition of tumour volume, which was measured with caliper. Each point represents mean tumour volume calculated from 10 animals per experimental group. Tumour weights were measured after animals were sacrificed at the end of the treatment. These cells are not resistant to CPT-11 which was used as a positive control.

[4] = test system: Hela S3 human cervix epitheloid carcinoma cells; experiment: Hela S3 hydroxyurea resistant cervix carcinoma xenograft in SCID mice; format: in vivo, human cells in mice; conditions: Hela S3 (cervix), hydroxyurea resistant, SCID; SEQ ID NO:1 10 mg/kg i.v. every other day 6 times; Hydroxyurea 250 mg/kg i.p. daily 10 days; Cisplatin 4 mg/kg i.v. weekly x3
Protocol: as §2, with “12C). […] The effects of combined treatment were greater than either treatment alone.” for “12C).”

[5] = test system: SK-OV-3 human ovary adenocarcinoma cells; experiment: SK-OV-3 ovary tumour xenograft in CD-1 nude mice, combination with taxol or cisplatin (1.8); format: in vivo, human cells in mice; conditions: SK-OV-3 (ovary), CD-1; SEQ ID NO:1 10 mg/kg i.v. every other day 17 times; Taxol 10 mg/kg weekly; Cisplatin 4 mg/kg weekly
Protocol: as §1

[6] = test system: MDA-CDDP-S4 human in vivo-selected Cisplatin-resistant breast adenocarcinoma cells; experiment: MDA-CDDP-S4 Cisplatin-resistant breast adenocarcinoma, fat pad, SCID mice (2.3); design: species or system human cells in mice
Protocol: as §2

[7] = test system: BxPC-3 human pancreatic carcinoma cells; experiment: BxPC-3 gemcitabine resistant pancreatic carcinoma xenograft in CD-1 nude mice; format: in vivo, human cells in mice; conditions: Gemcitabine 100 mg/kg i.v. every three days
Protocol: BxPC-3 is a gemcitabine resistant call line. […] Gemcitabine was administered intravenously every three days at a dose of 100 mg/kg. Antitumour activities were estimated by the inhibition of tumour volume, which was measured with caliper. Each point represents mean tumour volume calculated from 10 animals per experimental group. […] Hela S3 is a hydroxyurea resistant cell line. […] Hydroxyurea was administered intraperitoneally every day at a dose of 250 mg/kg for 10 days. Cisplatin was administered intravenously once a week for three weeks at a dose of 4 mg/kg. Antitumour activities were estimated by the inhibition of tumour volume, which was measured with caliper. Each point represents mean tumour volume calculated from 10 animals per experimental group. […] Cisplatin was administered intravenously once a week for three weeks at a dose of 4 mg/kg. Taxol was administered intravenously once a week for three weeks at a dose of 10 mg/kg. Antitumour activities were estimated by the inhibition of tumour volume, which was measured with caliper. Each point represents mean tumour volume calculated from 10 animals per experimental group. […] Taxol was administered i.p. once a week at a dose of 10 mg/kg. Antitumour activities were estimated by the inhibition of tumour volume (FIG. 12A), which was measured with calipers. Each point represents mean tumour volume calculated from 10 animals per experimental group. Animals were sacrificed and tumour weights taken at the end of the study (FIG. 12C). […] Cisplatin was administered intravenously once a week for four weeks at a dose of 4 mg/kg. Taxol was administered intravenously once a week for four weeks at a dose of 20 mg/kg. Antitumour activities were estimated by the inhibition of tumour volume, which was measured with caliper. Each point represents mean tumour volume calculated from 9-10 animals per experimental group. […] Cisplatin was administered intravenously once a week for four weeks at a dose of 4 mg/kg. Antitumour activities were estimated by the inhibition of tumour volume, which was measured with caliper. Each point represents mean tumour volume calculated from 10 animals per experimental group. At the end of the study the animals were sacrificed and tumours weighed. […] Taxol was administered i.p. once a week at a dose of 10 mg/kg. Anti-tumour activity was estimated by the inhibition of tumour volume, which was measured with caliper. Each point represents mean tumour volume calculated from 10 animals per experimental group. […] Antitumour activities were estimated by the inhibition of tumour volume, which was measured with caliper. Each point represents mean tumour volume calculated from 10 animals per experimental group. Tumour weights were measured after animals were sacrificed at the end of the treatment. […]

[8] = test system: A498 human kidney cancer cells; experiment: A498 kidney tumour xenograft in SCID mice, controls and chemotherapeutics (Example 7); format: in vivo, human cells in mice; conditions: oligonucleotides 10 mg/kg/2 days i.v., 5-FU 13 mg/kg/day×5, vinblastine 1 mg/kg/week, gemcitabine 100 mg/kg/week
From the text: CD-1 athymic female nude mice, BALB/c nu/nu nude mice, SCID, and SCID beige mice were purchased from Charles River Laboratories (Montreal, Canada) and experiments were typically initiated when the mice were 6-7 weeks old. […] Each experimental group typically contained 10 mice. After the size of tumour reached a mean tumour volume of 50-100 mm^3, treatment was initiated. […] Anti-tumour activity was estimated by the measurement of tumour volume with a calliper at two-three day intervals. Tumour volume was calculated by a formula L×W×H/2, where L indicates length, W indicates width and H indicates height. Within 24 hours after the last treatment, the animals were sacrificed and tumour and body weights were measured. Results of statistical analyses of the data are presented as P values in the figure legends.
Three additional treatment groups received: 5-FU (13 mg/kg/day×5), vinblastine (1 mg/kg/week) and gemcitabine (100 mg/kg/week). […] Caliper measurements at 1-week intervals were used to calculate tumour volumes. Each point in FIG. 28C represents mean tumour volume calculated from 10 animals per experimental group (with the exception of SEQ ID NO: 1 which was 8 animals). […] After 54 days the mice were sacrificed and the A498 tumours weighed. Each bar represents the mean tumour weight and standard error calculated for each treatment group.

Compound: CN(C)/N=N/c1[nH]cnc1C(N)=O [DTIC, dacarbazine, reference compound]
- Tumour weight as % of saline control [1]: 68%

Compound: N.N.[Cl][Pt][Cl] [Cisplatin, reference compound]
- Tumour weight as % of saline control [2]: 56%
- Tumour weight as % of saline control [3]: 69%
- Tumour weight as % of saline control [4]: 63%
- tumour volume data as percentage of saline control [5]: 67%
- Tumour weight as % of saline control ([6]; MDA-CDDP-S4 (breast), Cisplatin resistant, SCID, SEQ ID NO:1 10 mg/kg i.v. every other day 9 times, Taxol 10 mg/kg, Cisplatin 4 mg/kg i.v. weekly x3): 78%
- Antitumour effect (FIG. 11) ([6]; MDA-CDDP-S4 Cisplatin-resistant, SCID mice, SEQ ID NO:1 10 mg/kg i.v. every other day, Cisplatin 4 mg/kg, Taxol 10 mg/kg i.v. weekly): ineffective against Cisplatin-resistant tumour

Compound: Nc1ccn([C@@H]2O[C@H](CO)[C@@H](O)C2(F)F)c(=O)n1 [Gemcitabine, reference compound]
- Tumour weight as % of saline control ([7]; BxPC-3 (pancreatic), Gemcitabine resistant, CD-1, SEQ ID NO:1 10 mg/kg i.v. every other day 17 times): 83%
- Antitumour effect (tumour volume, FIG. 9) ([7]; BxPC-3 gemcitabine resistant, CD-1 nude mice, SEQ ID NO:1 10 mg/kg i.v. every other day): ineffective against Gemcitabine-resistant tumour
- Effect on tumour growth (volume and weight) [8]: ineffective in stabilization of the tumours; also recorded: at best, a delay in the rate of tumour growth
